Data as given in article PMC5351712 (Future Science OA, 2017).
Read-outs that look alike come from different tables or passages of the source.

Columns and labels:
[1] = Stability of EPL and EPLT in human plasma under different storage conditions; format: physicochemical; conditions: n = 6
Protocol: The bench-top stability was performed for each analyte in plasma was determined by three QC levels in six replicates for 8 h at ambient temperature (24 ± 2°C). […] For determination of freeze–thaw stability of the analytes, the spiked plasma samples were frozen for 24 h at -20°C and thawed unassisted at room temperature. When completely thawed, the samples were refrozen for 12–24 h at -20°C. On repeating the freeze−thaw cycle for 2 days, bioanalysis was done on the third day. For short-term stability, frozen plasma samples (-20°C) were kept at room temperature for 4 h before sample processing. Long-term stability was evaluated after storing the frozen plasma samples at -20°C for the whole duration of the study which was almost 30 days. […]

[2] = cited from earlier work; for Time of maximum plasma concentration: after oral administration of EPL
[3] = set-up: method as in ref 7 = [7]; 7 Yoon KH Kim W Park J Kim HJ Determination of enalapril in human plasma by high performance liquid chromatography-electrospray ionization mass spectrometry Bull. Korean Chem. Soc. 25 878 880 2004; conditions: after oral intake, mean value; cited from earlier work
[4] = set-up: method as in GC–MS method; conditions: single oral 20 mg EPL, 24 healthy adult subjects, mean ± SD; analyte not stated; ref GC–MS method; cited from earlier work
[5] = single oral 20 mg EPL maleate, 12 healthy volunteers; cited from earlier work
[6] = set-up: method as in ref 36 = [36]; 36 Remko M Acidity, lipophilicity, solubility, absorption, and polar surface area of some ACE inhibitors Chem. Pap. 61 133 141 2007; conditions: cited from earlier work
[7] = cited from earlier work
[8] = Autosampler stability 24 h at 24°C, QC 3 ng/ml
[9] = Autosampler stability 24 h at 24°C, QC 200 ng/ml
[10] = Autosampler stability 24 h at 24°C, QC 400 ng/ml
[11] = Bench top stability for 8 h, QC 3 ng/ml
[12] = Bench top stability for 8 h, QC 200 ng/ml
[13] = Bench top stability for 8 h, QC 400 ng/ml
[14] = Freeze and thaw stability at -20°C (3 cycles), QC 3 ng/ml
[15] = Freeze and thaw stability at -20°C (3 cycles), QC 200 ng/ml
[16] = Freeze and thaw stability at -20°C (3 cycles), QC 400 ng/ml
[17] = Long-term stability at -20.0°C for 30 days, QC 3 ng/ml
[18] = Long-term stability at -20.0°C for 30 days, QC 200 ng/ml
[19] = Long-term stability at -20.0°C for 30 days, QC 400 ng/ml

Accuracy after storage [1, 8] [%] | Mean concentration after storage [1, 8] [ng/mL] | Accuracy after storage [1, 9] [%] | Mean concentration after storage [1, 9] [ng/mL] | Accuracy after storage [1, 10] [%] | Mean concentration after storage [1, 10] [ng/mL] | Mean concentration after storage [1, 11] [ng/mL] | Accuracy after storage [1, 12] [%] | Mean concentration after storage [1, 12] [ng/mL] | Accuracy after storage [1, 13] [%] | Mean concentration after storage [1, 13] [ng/mL] | Accuracy after storage [1, 14] [%] | Mean concentration after storage [1, 14] [ng/mL] | Accuracy after storage [1, 15] [%] | Mean concentration after storage [1, 15] [ng/mL] | Accuracy after storage [1, 16] [%] | Mean concentration after storage [1, 16] [ng/mL] | Accuracy after storage [1, 17] [%] | Mean concentration after storage [1, 17] [ng/mL] | Accuracy after storage [1, 18] [%] | Compound | further results
92.6446 | 2.7500 | 100.4675 | 200.9350 | 92.6098 | 384.6733 | 2.7350 | 100.3303 | 200.9567 | 99.2485 | 412.2483 | 91.6339 | 2.7200 | 94.7244 | 189.7283 | 93.5010 | 388.3750 | 90.9601 | 2.7000 | 98.6628 | CCOC(=O)[C@H](CCc1ccccc1)N[C@@H](C)C(=O)N1CCC[C@H]1C(=O)O [EPL, enalapril] | Accuracy after storage [1, 11]: 92.1392%; Mean concentration after storage [1, 18]: 197.6167 ng/mL; Accuracy after storage [1, 19]: 94.6810%; Mean concentration after storage [1, 19]: 393.2767 ng/mL; Plasma level after 4 h ([2]; after 4 h not detected above this level): ≤ 10 ng/mL; Time of maximum plasma concentration [2]: ≤ 1 h; Dose recovered in the urine and feces as EPL or EPLT [2]: approximately 94%; Influence of food on absorption after oral administration [2]: not influenced by the presence of food; Terminal half-life [2]: approximately 2 h; Bioavailability ([2]; healthy subjects, absorbed from the GI tract): 60–70%; Tmax [3]: 0.96 ± 0.36 h; T1/2 [4]: 4.2 ± 1.6 h; Cmax [5]: 152.1 ng/mL; pK a (strongest acidic) [6]: 3.0; polar surface area [6]: 95.9
98.5516 | 2.6650 | 93.8950 | 187.7900 | 92.5255 | 365.4017 | 2.8833 | 102.2798 | 190.4450 | 98.0713 | 387.3033 | 87.8274 | 2.3750 | 95.3222 | 177.4900 | 88.2284 | 348.4317 | 92.3267 | 2.4967 | 105.6740 | C[C@H](N[C@@H](CCc1ccccc1)C(=O)O)C(=O)N1CCC[C@H]1C(=O)O [EPLT, enalaprilat] | Mean concentration after storage [1, 18]: 196.7650 ng/mL; Accuracy after storage [1, 19]: 99.7772%; Mean concentration after storage [1, 19]: 394.0400 ng/mL; Half-life ([2]; EPLT after administration of EPL): 30 to 35 h; Time of maximum plasma concentration [2]: 3 to 4 h; Cmax [5]: 88.5 ng/mL; AUC0–t [7]: 401 ± 89 ng·h/mL; AUC0–∞ [7]: 420 ± 91 ng·h/mL; Cmax [7]: 47.5 ± 12.4 ng/mL; T1/2 [7]: 6.71 ± 2.22 h; Tmax [7]: 4.20 ± 1.06 h
